Assay results reported in PMC3613864 (Cell, 2012).
“Also recorded” adds a separate entry of the source. Read-outs that look alike come from different tables or passages of the source.

What was measured:
CMK cells [1] = experiment: Polyploidization, proliferation, apoptosis and CD41/CD42 expression in CMK cells; type: cell-based, human
tg-ERG cells = experiment: AMKL cell line derived from ERG transgenic mice; type: cell-based; details: tg-ERG cells (data not shown)
6133/MPL cells [2] = experiment: 6133/MPL cells in vitro; type: cell-based; details: 6133/MPL murine cell line
6133/MPL cells [3] = experiment: Transplantation of drug-pre-treated 6133/MPL cells into mice; type: in vivo, C57Bl/6 mice
AURKA = target: T1, AURKA (Homo sapiens, UniProt O14965); experiment: Phosphorylation of Aurora kinases in CMK cells by Western blot; type: cell-based
T1 sequence (O14965 1-403): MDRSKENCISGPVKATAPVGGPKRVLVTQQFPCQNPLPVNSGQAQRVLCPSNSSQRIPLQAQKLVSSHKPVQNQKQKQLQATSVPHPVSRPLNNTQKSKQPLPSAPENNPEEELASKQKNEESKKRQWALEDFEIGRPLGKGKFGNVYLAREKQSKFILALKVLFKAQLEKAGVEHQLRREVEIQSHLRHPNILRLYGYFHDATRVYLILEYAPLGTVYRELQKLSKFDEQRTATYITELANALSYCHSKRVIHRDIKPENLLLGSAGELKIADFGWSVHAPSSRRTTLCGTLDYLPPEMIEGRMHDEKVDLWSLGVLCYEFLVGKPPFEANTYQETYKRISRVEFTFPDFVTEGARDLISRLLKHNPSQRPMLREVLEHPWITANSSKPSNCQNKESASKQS

AURKB = AURKB (Homo sapiens, UniProt Q96GD4); experiment: as above; type: cell-based
Sequence of AURKB (Q96GD4 whole entry): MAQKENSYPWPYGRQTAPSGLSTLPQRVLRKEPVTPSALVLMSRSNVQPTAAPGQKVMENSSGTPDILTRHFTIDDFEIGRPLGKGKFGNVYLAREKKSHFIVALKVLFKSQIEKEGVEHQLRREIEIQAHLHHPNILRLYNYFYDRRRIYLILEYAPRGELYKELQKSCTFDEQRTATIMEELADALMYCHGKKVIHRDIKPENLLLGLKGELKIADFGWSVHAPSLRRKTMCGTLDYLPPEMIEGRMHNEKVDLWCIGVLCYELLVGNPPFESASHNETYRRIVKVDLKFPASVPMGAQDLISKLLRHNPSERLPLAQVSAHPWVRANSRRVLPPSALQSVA

phospho-histone H3 = experiment: Phosphorylation of histone H3 in CMK cells; type: cell-based, human
[4] = test system: primary human megakaryocytes; experiment: Primary human megakaryocytes expanded from CD34+ cells; type: cell-based
CMK cells [5] = type: cell-based, human; details: three-day incubation
[6] = test system: murine bone marrow-derived megakaryocytes; experiment: Primary murine hematopoietic progenitor cells cultured with THPO; type: cell-based; details: primary mouse bone marrow cells cultured ex vivo
6133/MPL cells [7] = experiment: Drug treatment of mice transplanted with 6133/MPL cells; type: in vivo, C57Bl/6 mice
[8] = test system: human CD41+ non-DS-AMKL blasts; experiment: Human non-DS-AMKL blasts cultured ex vivo; type: cell-based; details: 0.1 µM, 6 days
in vivo = details: C57Bl/6, mouse, plasma, po, 15 mg/kg
AURKA relative to AURKB = details: ref Gorgun et al., 2010; Manfredi et al., 2011; cited from earlier work
[9] = Oral pharmacokinetics, plasma concentration after a single dose; details: single oral administration of 15 mg/kg
402 purified kinases = experiment: Ambit KinomeScan kinase binding profile; details: of 402 kinases; 5 µM diMF
AMKL-derived cells = experiment: Phenotype in AMKL-derived cells; type: cell-based; details: data not shown
[10] = test system: leukemia blasts that harbor activated oncogenic forms of KIT, FLT3, and BCR-ABL; details: ref Mali et al., 2011; cited from earlier work
[11] = CMK cells, 72 hr, Fig 2: K252a, latrunculin B, diMF 5 µM, SU6656 4 µM
[12] = 1 µM, CMK cells (data not shown)
[13] = CMK cells, 0.1 µM paclitaxel 18 hr then compound 2 hr

CCN(CCO)CCCOc1ccc2c(Nc3cc(CC(=O)Nc4cccc(F)c4)[nH]n3)ncnc2c1 [AZD1152-HQPA]
apoptosis (CMK cells [1]; [11]): induced | polyploidization (CMK cells [1]; [11]): induced robust polyploidization | proliferation (CMK cells [1]; [11]): restricted proliferation | proliferation and megakaryocyte lineage-specific surface marker expression (tg-ERG cells): induced proliferation arrest and megakaryocyte lineage-specific surface marker expression | polyploidization, CD41 and CD42 expression, and apoptosis (6133/MPL cells [2]): increased polyploidization, CD41 and CD42 expression, and apoptosis | leukemia development after transplantation of pre-treated cells (6133/MPL cells [3]; 6133/MPL cells pre-treated 24 hr with 3 µM): failed to significantly interfere with leukemia development | phospho-AURKA (AURKA; [12]): complete loss of phospho-AURKA and AURKB | AURKA phosphorylation / autophosphorylation (AURKA; [13]): reduced phosphorylation of both Aurora A and B kinases | phospho-AURKB (AURKB; [12]): complete loss of phospho-AURKA and AURKB | AURKB phosphorylation (AURKB; [13]): reduced phosphorylation of both Aurora A and B kinases | phospho-histone H3 level (phospho-histone H3): reduction in phospho-histone H3 | polyploidization of primary human megakaryocytes [4]: induced robust and selective polyploidization

COC(=O)[C@@]1(O)C[C@H]2O[C@]1(C)n1c3ccccc3c3c4c(c5c6ccccc6n2c5c31)C(=O)NC4 [K252a]
screening positive: increased fraction of cells with DNA content beyond a cutoff (between 4N and 8N) compared to DMSO (CMK cells [5]): identified | apoptosis (CMK cells [1]; [11]): inducing | polyploidization (CMK cells [1]; [11]): inducing | proliferation (CMK cells [1]; [11]): inhibited

COc1cc(Nc2ncc3c(n2)-c2ccc(Cl)cc2C(c2c(F)cccc2OC)=NC3)ccc1C(=O)O [MLN8237, Alisertib]
apoptosis (CMK cells [1]; [11]): induced | polyploidization (CMK cells [1]; [11]): induced robust polyploidization | proliferation (CMK cells [1]; [11]): restricted proliferation | proliferation and megakaryocyte lineage-specific surface marker expression (tg-ERG cells): induced proliferation arrest and megakaryocyte lineage-specific surface marker expression | polyploidization and expression of CD41 and CD42 [6]: induced polyploidization and expression of CD41 and CD42 | polyploidization, CD41 and CD42 expression, and apoptosis (6133/MPL cells [2]): increased polyploidization, CD41 and CD42 expression, and apoptosis | animals surviving up to 120 days after transplantation of pre-treated cells (6133/MPL cells [3]; 6133/MPL cells pre-treated 24 hr with 1 µM): 80% | infiltration of leukemic cells (liver, lung) (6133/MPL cells [7]; 15 mg/kg): striking reduction of infiltration of leukemic cells | peripheral white blood cell count, spleen and liver weights (6133/MPL cells [7]; 15 mg/kg for 2 weeks vs vehicle): significantly reduced peripheral white blood cell count and spleen and liver weights | polyploidization and proliferation of human non-DS AMKL cells [8]: induced both polyploidization and proliferative arrest | AURKA phosphorylation / autophosphorylation (AURKA): reduced AURKA autophosphorylation | autophosphorylation of AURKA (AURKA): inhibited autophosphorylation of AURKA | autophosphorylation of AURKB (AURKB; 0.1 µM, CMK cells): but not AURKB | phospho-histone H3 level (phospho-histone H3): accumulation of phospho-histone H3 | polyploidization of primary human megakaryocytes [4]: induced robust and selective polyploidization | Cmax (in vivo): 34.8 µM | Tmax (in vivo): 0.5 h | half-life (in vivo): 3.1 h | selectivity for AURKA relative to AURKB in cells (AURKA relative to AURKB): 200 fold | bioavailability [9]: excellent bioavailability | mean plasma concentrations for at least 12 hr [9]: above 0.5 µM

CN(C)S(=O)(=O)c1ccc2c(c1)/C(=C/c1cc3c([nH]1)CCCC3)C(=O)N2 [SU6656]
apoptosis (CMK cells [1]; [11]): inducing | polyploidization (CMK cells [1]; [11]): inducing | proliferation (CMK cells [1]; [11]): inhibited

C=C1[C@@H](C)[C@H]2[C@H](Cc3ccccc3)NC(=O)[C@]23OC(=O)/C=C/[C@H](O)CCC[C@@H](C)C/C=C/[C@H]3[C@@H]1O [cytochalasin B]
screening positive: increased fraction of cells with DNA content beyond a cutoff (between 4N and 8N) compared to DMSO (CMK cells [5]): positives

O=S(=O)(c1cccc2cnccc12)N1CCCNCC1 [fasudil]
number of kinases whose binding to the immobilized ligand was inhibited by more than 65% (402 purified kinases): 27 | activity / phenotype in AMKL-derived cells compared with diMF (AMKL-derived cells): did not fully recapitulate the strong phenotype; also recorded: lack of activity | growth of leukemia cells in vivo and in vitro [10]: restricted the growth

C/C1=C/C(=O)O[C@@H]2C[C@@H](CC[C@H](C)/C=C\CC1)O[C@@](O)([C@@H]1CSC(=O)N1)C2 [latrunculin B]
screening positive: increased fraction of cells with DNA content beyond a cutoff (between 4N and 8N) compared to DMSO (CMK cells [5]): positives | apoptosis (CMK cells [1]; [11]): inducing | polyploidization (CMK cells [1]; [11]): inducing | proliferation (CMK cells [1]; [11]): inhibited

c1nc2nc(Nc3ccc(N4CCOCC4)cc3)nc(NC3CCCCC3)c2[nH]1 [reversine]
screening positive: increased fraction of cells with DNA content beyond a cutoff (between 4N and 8N) compared to DMSO (CMK cells [5]): identified | apoptosis (CMK cells [1]; [11]): inducing | polyploidization (CMK cells [1]; [11]): inducing | proliferation (CMK cells [1]; [11]): inhibited

JAK3 inhibitor VI
screening positive: increased fraction of cells with DNA content beyond a cutoff (between 4N and 8N) compared to DMSO (CMK cells [5]): identified | apoptosis (CMK cells [1]): inducing | polyploidization (CMK cells [1]): inducing; also recorded: Induction of CMK polyploidization
